Source: US11564964B2, “Compositions and methods for the treatment of coronavirus infection” (priority 2021, dated 2023)
Values after ≈ are worked out from the molar mass of the structure shown.

How the values were obtained:
[1] = MTT cytotoxicity assay; type: cell-based; details: African green monkey, Vero E6 cells, read-out: cytotoxicity IC50 against Vero E6 cells
Method: Vero-E6 cells with the previously reported (MTT) method^34 were used to test the cytotoxic activity of the test compounds and extracts. In brief, the cells were plated in 96-well plates and incubated for 24 h at 37° C. in 5% CO2 (100 μL/well at a density of 3×10^5 cells/mL). The cells were then treated with different concentrations of extracts/the tested compounds in triplicates. The supernatant was discarded after another 24 h, and cell monolayers were washed three times with sterile 1× PBS. MTT solution was added to each well and then incubated at 37° C. for 4 h. The produced formazan crystals were dissolved with 200 μL of acidified isopropanol (0.04 M HCl in absolute isopropanol=0.073 mL HCL in 50 mL isopropanol). Thereafter, the absorbance of formazan solutions was measured at λmax 540 nm using a multi-well plate reader. The following equation was applied to calculate the percentage of cytotoxicity compared to the untreated cells:
[formula] The produced plot of % cytotoxicity versus sample concentrations was then used to calculate the IC50s. Viral Inhibitory Concentration 50 (IC50) Determination

[2] = test system: SARS-CoV-2 (hCoV-19/Egypt/NRC-3/2020 isolate); details: for in vitro SARS-CoV-2 testing (activity in words): SARS CoV-2 infected Vero E6 cells; for activity against SARS CoV-2 (in words): (100 μg/mL)
[3] = test system: SARS-CoV-2 mRNA; assay: Quantitative real time measurement of SARS-CoV-2 mRNA expression (TaqMan RT-PCR) in infected Vero E6 cells; type: cell-based; details: different concentrations, 24 h and 48 h post treatment, normalized to infected untreated cells
Method: The RNA extraction of expressed SARS-CoV-2 mRNA in infected treated and untreated cell monolayers was performed using QlAamp Viral RNA Mini Kit according to manufacturer instructions. To assess the viral mRNA expression in infected/treated and infected/untreated Vero E6 cells, TaqMan Real-time RT-PCR assay was performed. Briefly, 100 ng of extracted RNA were mixed with TaqMan primers to quantify SARS-CoV-2 mRNA (targeting […]: HKU-ORF1b-nsp14F: 5′-[…]-3′ (SEQ ID NO: 1), HKU-ORF1b-nsp141P Taqman Probe: 5′-FAM-[…]-TAMRA-3′ (SEQ ID NO: 2), HKU-ORF1b-nsp14R: 5′-[…]-3′ (SEQ ID NO: 3) together with the other components of Verso 1-step RT-qPCR Kit plus Rox (Invitrogen) in recommended volumes (up to 50 μl reaction) and thermal protocol conditions.
To validate our in silico-derived hits, we evaluated their antiviral activity against the clinical SARS-CoV-2 viral isolate in Vero E6 cells. […] Afterwards, the SARS CoV-2 infected Vero E6 cells were incubated with each of the tested compounds at different concentrations. The antiviral activity was then evaluated by determining the viral copy numbers in the cell supernatant via qRT-PCR. […] The poor antiviral activity of other metabolites (>100 μg/mL) might be attributed to their high polarity that could hinder the permeability across the cell membrane^39.

[4] = test system: SARS-CoV-2 (hCoV-19/Egypt/NRC-3/2020 isolate); assay: microbe, parasite or virus in culture; details: Severe acute respiratory syndrome coronavirus 2, Vero C1008, read-out: IC50, inhibition of SARS CoV-2 viral replication

## O=c1c(O[C@@H]2O[C@H](CO)[C@@H](O)[C@H](O)[C@H]2O)c(-c2ccc(O)cc2)oc2cc(O)cc(O)c12 [astragalin]
[1]
  IC50 at 24 h: > 50 µg/mL
[2]
  in vitro SARS-CoV-2 testing (activity in words): inactive

## O=c1cc(-c2ccc(O)cc2)oc2cc(O[C@@H]3O[C@H](CO)[C@@H](O)[C@H](O)[C@H]3O)cc(O)c12 [apigenin 7-O-glucoside]
[2]
  in vitro SARS-CoV-2 testing (activity in words): inactive

## CC[C@H](CC[C@@H](C)[C@H]1CC[C@H]2[C@@H]3CC=C4C[C@@H](O[C@@H]5O[C@H](CO)[C@@H](O)[C@H](O)[C@H]5O)CC[C@]4(C)[C@H]3CC[C@]12C)C(C)C [sitogluside]
[2]
  activity against SARS CoV-2 (in words): inactive

## COc1ccc(C[C@H]2COC(=O)[C@@H]2Cc2ccc(O[C@@H]3O[C@H](CO)[C@@H](O)[C@H](O)[C@H]3O)c(OC)c2)cc1OC [arctiin]
[1]
  IC50 at 24 h: > 50 µg/mL
[2]
  in vitro SARS-CoV-2 testing (activity in words): inactive

## COc1cc(C[C@H]2COC(=O)[C@]2(O)Cc2ccc(O[C@@H]3O[C@H](CO)[C@@H](O)[C@H](O)[C@H]3O)c(OC)c2)ccc1O [nortracheloside]
[2]
  in vitro SARS-CoV-2 testing (activity in words): inactive

## O=c1cc(-c2ccc(O)c(O)c2)oc2cc(O)cc(O)c12 [luteolin]
[2]
  activity against SARS CoV-2 (in words): inactive

## C=C1C(=O)O[C@@H]2/C=C(\CO)CC/C=C(\C)C[C@H](OC(=O)C(=C)[C@@H](O)CO)[C@@H]12 [cnicin]
[3]
  inhibitory effect on the viral mRNA: significant viral mRNA inhibition
[4]
  IC50: 1.18 µg/mL (≈ 3.12 µM)
[2]; safety profile, Vero E6 / SARS CoV-2
  Si=CC50/IC50: 70.3
